Source: PubChem BioAssay (NCI)
Several values for one entry are separate records, joined by “and”; a condition that tells them apart may be missing. Identical values can stand only once.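 Five concentrations, 48 hours, 96-well plates. The concentration for 50% growth inhibition is given as GI50. TGI: total growth inhibition.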

What was measured:
Experiment in all cases: NCI tumour cell line growth inhibition, 48 h
[1] = test system: UO-31 renal
[2] = test system: U251 CNS
[3] = test system: RPMI-8226 leukemia
[4] = test system: SK-OV-3 ovarian
[5] = test system: MCF7 breast
[6] = test system: UACC-257 melanoma
[7] = test system: OVCAR-8 ovarian
[8] = test system: HT29 colon
[9] = test system: SN12C renal
[10] = test system: OVCAR-3 ovarian

Compound | GI50 [1] | TGI [1] | GI50 [2] | TGI [2] | GI50 [3] | TGI [3] | GI50 [4] | TGI [4] | GI50 [5] | TGI [5] | GI50 [6] | TGI [6] | GI50 [7] | TGI [7] | GI50 [8] | TGI [8] | GI50 [9] | TGI [9] | GI50 [10] | TGI [10]
CCN(CC)Cc1cc2[nH]c3c4ccc(Cl)cc4ncc3c2cc1OC | 4.25 µM and 1.59 µM | 8.93 µM and 3.83 µM | 2.18 µM and 2.16 µM | 5.97 µM and 5.39 µM | 1.26 µM and 1.87 µM | 5.09 µM and 4.56 µM | 14.2 µM and 3.63 µM | 27.3 µM and 12.1 µM | 2.17 µM and 1.61 µM | 8.37 µM and 3.29 µM | 2.79 µM and 1.82 µM | 6.92 µM and 3.45 µM | 3.63 µM and 2.5 µM | 12.2 µM and 7.41 µM | 1.78 µM and 1.91 µM | 5.6 µM and 4.82 µM | 10.8 µM and 13.7 µM | 22.7 µM and 26.7 µM | 1.89 µM and 2.02 µM | 3.78 µM and 4.29 µM
COc1cc2c3c(n(C)c(=O)c2cc1OC)-c1ccc(C#N)cc1C3=O | > 100 µM | > 100 µM | 84.9 µM | > 100 µM | > 100 µM | > 100 µM | > 100 µM | > 100 µM | 51.1 µM | > 100 µM | > 100 µM | > 100 µM | > 100 µM | > 100 µM | > 100 µM | > 100 µM | > 100 µM | > 100 µM | > 100 µM | > 100 µM
CN(C)C(=S)SCC(=O)Nc1ccccc1 |  | > 100 µM |  | > 100 µM |  | > 100 µM |  | > 100 µM |  | > 100 µM |  | > 100 µM |  | > 100 µM |  | > 100 µM |  | > 100 µM |  | > 100 µM
CC1=C(C(=O)Nc2ccc(Cl)c(C(=O)OC(C)C)c2)SCCO1 |  | 73 µM |  | 81.3 µM |  | 67.7 µM |  | > 81.1 µM |  | > 90.4 µM |  | > 89.8 µM |  | > 100 µM |  | 50.8 µM |  | > 100 µM |  | > 100 µM
CN1C(=O)C2(c3ccccc31)N(c1ccc(Cl)cc1)C(=O)C2(c1ccccc1)c1ccccc1 (configuration not stated) | 27.9 µM | > 100 µM | 45.5 µM | > 100 µM | 6.25 µM | > 100 µM | > 100 µM | > 100 µM | 39.6 µM | > 100 µM | 47.6 µM | > 100 µM | > 100 µM | > 100 µM | 11 µM | > 100 µM | 94.3 µM | > 100 µM | 20.2 µM | > 100 µM
O=C(Nc1nc2ccccc2s1)Nc1ccc([N+](=O)[O-])cc1Cl | 2.24 µM | 6.44 µM | 2.13 µM | 4.75 µM | 2.19 µM | > 21 µM | 8.52 µM | 22.2 µM | 2.55 µM | 9.72 µM | 5.62 µM | 14.2 µM | 2.13 µM | 4.99 µM | 7.3 µM | 21.9 µM | 4.36 µM | 9.53 µM | 3.05 µM | 8.17 µM
CC[C@H](C)[C@H](NC(=O)[C@H]1CCCCN1C)C(=O)N(C)[C@H](C[C@@H](OC(C)=O)c1nc(C(=O)N[C@@H](Cc2ccccc2)C[C@H](C)C(=O)O)cs1)C(C)C | 0.00788 µM and 0.00165 µM | > 16.5 µM | 0.000481 µM and 0.00165 µM | > 16.5 µM | 0.000264 µM and 0.00165 µM | 6.56 µM | 0.000807 µM and 0.00165 µM |  |  | > 16.5 µM | > 16.5 µM | > 16.5 µM | 0.00297 µM and 0.00165 µM | > 16.5 µM | 0.000356 µM and 0.00165 µM | 0.002 µM | 0.003 µM and 0.00165 µM | > 16.5 µM | 0.000234 µM and < 0.00165 µM | 0.0119 µM and < 0.00165 µM
CN1CSC(=S)N(Cc2ccccc2)C1 | 7.93 µM | 21.5 µM | 13.5 µM | 30.2 µM | 5.54 µM | 79.7 µM | > 100 µM | > 100 µM | 3.18 µM | 17.6 µM | 13.7 µM | 30.4 µM | 25.2 µM | > 100 µM | 3.36 µM | 11.6 µM | 15.4 µM | 35.7 µM | 3.96 µM | 15 µM
Cn1c(-c2c(N)n(CCCN3CCOCC3)c3nc(C#N)c(C#N)nc23)nc2ccccc21 | 6.36 µM | 55.6 µM | 9.7 µM | > 63.8 µM | 0.909 µM | > 52.7 µM | 51.7 µM | > 100 µM | 1.48 µM | > 43.8 µM | 25.7 µM | > 100 µM | 4.99 µM | > 100 µM |  | > 72.4 µM | 8.85 µM | > 80.2 µM | 1.8 µM | 13.4 µM
N=c1c2c(=N)n3c(nc2nc2n1-c1ccccc1Sc1ccccc1-2)sc1cc(Cl)ccc13 | 1.29 µM | 7.68 µM | 1.84 µM | 6.79 µM | 0.988 µM | > 100 µM | 4.42 µM | 37 µM | 2.21 µM | > 100 µM | 2.59 µM | 54.8 µM | 3.1 µM | 67.9 µM | 3.43 µM | > 100 µM | 2.33 µM | 32.6 µM | 1.12 µM | 4.24 µM
O=C1Cc2cc(C(=O)NC3C[C@H]4CC[C@@H](C3)N4S(=O)(=O)CC3CCN(CCCC(F)(F)F)CC3)c(Cl)cc2N1 (some centres not stated) | > 100 µM | > 100 µM | > 100 µM | > 100 µM | > 100 µM | > 100 µM | > 100 µM | > 100 µM | > 100 µM | > 100 µM | > 100 µM | > 100 µM | > 100 µM | > 100 µM | > 100 µM | > 100 µM | > 100 µM | > 100 µM | > 100 µM | > 100 µM
O=C(COc1cccc(/C=C2\CSc3ccccc3C2=O)c1)Nc1nccs1 | 1.29 µM | 2.64 µM | 1.82 µM | 3.21 µM | 0.653 µM | 2.79 µM | 14.6 µM | 27.7 µM | 0.779 µM | 3.54 µM | 3.02 µM | 9.77 µM | 3.08 µM | 10.4 µM | 1.85 µM | 3.43 µM | 1.76 µM | 4.46 µM | 1.62 µM | 2.98 µM
NS(=O)(=O)OCCCCCCCOS(N)(=O)=O |  | 680 µM |  | 683 µM |  | 1330 µM |  | 1570 µM |  | 1780 µM |  | 1310 µM |  | 707 µM |  | 1630 µM |  | 1180 µM |  | 835 µM
O=C1/C=C/[C@@H](O)[C@@H]2C[C@@H](O)C[C@H]2/C=C/CCC[C@H](C(F)(F)F)O1 | 0.0813 µM | 2.25 µM | 1.7 µM | > 100 µM | 0.274 µM | 1.04 µM | 16.4 µM | > 100 µM | 0.0896 µM | 0.813 µM | 0.053 µM | 1.01 µM | 0.254 µM | 9.03 µM | 0.0678 µM | 0.38 µM | 0.779 µM | 13.8 µM | 0.103 µM | 0.464 µM
